Where “and” joins values, the source holds several entries; their conditions need not be identical. Equal values may be shown once.
Experiments:
vaccinia virus = test: microbe, parasite or virus in culture; format: cell-based; conditions: for IC50: Orthopoxvirus vaccinia, Vero, read-out: ID50 (inhibitory dose 50; 50% reduction in virus replication), vaccinia virus in Vero cells, called MIC50; for TI (therapeutic index, MTC/ID50): Vero cells, TI>50 indicates a useful compound
[1] = Cytotoxicity of test compound to Vero host cells (minimum toxic concentration); conditions: monkey, MTC (minimum toxic concentration), footnote: lowest concentration giving 50% reduction in percent survival of viable host cells

SMILES | IC50 (vaccinia virus) [µg/mL] | TI (therapeutic index, MTC/ID50) (vaccinia virus) | MCC [1] [µg/mL]
COc1ccc([N+](=O)[O-])cc1COn1cnc2c(ncn2[C@@H]2O[C@H](CO)[C@@H](O)[C@H]2O)c1=N.[O-][Cl+3]([O-])([O-])O [Compound 2t, 1-(2-Methoxy-5-nitrobenzyloxy)adenosine, perchloric acid salt] | 2.01 | 160 and 87 | > 320
COC(=O)c1cccc(COn2cnc3c(ncn3[C@@H]3O[C@H](CO)[C@@H](O)[C@H]3O)c2=N)c1.[O-][Cl+3]([O-])([O-])O [Compound 2u, 1-(3-Methoxycarbonylbenzyloxy)adenosine, perchloric acid salt] | 1.55 | 207 and 139 | > 320
N#Cc1ccc(COn2cnc3c(ncn3[C@@H]3O[C@H](CO)[C@@H](O)[C@H]3O)c2=N)cc1.[O-][Cl+3]([O-])([O-])O [Compound 2v, 1-(4-Cyanobenzyloxy)adenosine, perchloric acid salt] | 3.2 | 100 and 134 | > 320
N#Cc1cccc(COn2cnc3c(ncn3[C@@H]3O[C@H](CO)[C@@H](O)[C@H]3O)c2=N)c1.[O-][Cl+3]([O-])([O-])O [Compound 2x, 1-(3-Cyanobenzyloxy)adenosine, perchloric acid salt] |  | 182 and 134 | > 320
COc1ccccc1COn1cnc2c(ncn2[C@@H]2O[C@H](CO)[C@@H](O)[C@H]2O)c1=N.[O-][Cl+3]([O-])([O-])O [Compound 2y, 1-(2-methoxybenzyloxy)adenosine, perchloric acid salt] | 0.17 | 1935 and > 3020 | 320
Cc1ccc(COn2cnc3c(ncn3[C@@H]3O[C@H](CO)[C@@H](O)[C@H]3O)c2=N)cc1C.[O-][Cl+3]([O-])([O-])O [Compound 2z, 1-(3,4-Dimethylbenzyloxy)adenosine, perchloric acid salt] | 0.32 | > 1000 and > 1760 | 320
